Where “and” joins values, the source holds several entries; their conditions need not be identical. Equal entries are not always repeated. Numbers after ± are expanded uncertainties.
Assay: activity coefficient (dimensionless); of the first substance listed, at infinite dilution; xn = mol fraction of the nth substance listed
Conditions: Liquid, Chromatography, x1 = 0

**Q.** For CCCCCCC=O [heptanal] + CCCCCC[n+]1ccn(C)c1.O=S(=O)([N-]S(=O)(=O)C(F)(F)F)C(F)(F)F, which activity coefficient (343.55 K) is on record?
**A.** Its activity coefficient is 1.11 ± 0.07.

**Q.** What about the activity coefficient (354.05 K) of the same compound?
**A.** Its activity coefficient is 1.07 ± 0.068.

**Q.** What about the activity coefficient (364.45 K) of the same compound?
**A.** The activity coefficient was 1.02 ± 0.064.

**Q.** What about the activity coefficient (374.95 K) of the same compound?
**A.** Its activity coefficient is 0.97 ± 0.061.

**Q.** What about the activity coefficient (385.35 K) of the same compound?
**A.** The activity coefficient was 0.92 ± 0.058.

**Q.** What about the activity coefficient (395.95 K) of the same compound?
**A.** The activity coefficient was 0.9 ± 0.057.

**Q.** Which activity coefficient (300.95 K) does the source give for CCCCCCC [heptane] + CCCCCC[n+]1ccn(C)c1.O=S(=O)([N-]S(=O)(=O)C(F)(F)F)C(F)(F)F here?
**A.** Its activity coefficient is 11.2 ± 0.76.

**Q.** And the activity coefficient (312.25 K)?
**A.** The activity coefficient was 10.4 ± 0.71.

**Q.** What about the activity coefficient (322.85 K) of the same compound?
**A.** Its activity coefficient is 9.69 ± 0.66.

**Q.** What about the activity coefficient (333.25 K) of the same compound?
**A.** The activity coefficient was 9.09 ± 0.62.

**Q.** And the activity coefficient (343.75 K)?
**A.** Its activity coefficient is 8.65 ± 0.59.

**Q.** What does the source list for CCCCCCO [hexan-1-ol] + CCCCCC[n+]1ccn(C)c1.O=S(=O)([N-]S(=O)(=O)C(F)(F)F)C(F)(F)F?
**A.** activity coefficient (354.05 K): 2.18 ± 0.15; activity coefficient (364.55 K): 1.97 ± 0.13; activity coefficient (374.95 K): 1.82 ± 0.12; activity coefficient (385.45 K): 1.67 ± 0.11; activity coefficient (395.95 K): 1.56 ± 0.1

**Q.** Which activity coefficient (333.15 K) does the source give for CCCCCC=O [hexanal] + CCCCCC[n+]1ccn(C)c1.O=S(=O)([N-]S(=O)(=O)C(F)(F)F)C(F)(F)F here?
**A.** Its activity coefficient is 1.2 ± 0.077.

**Q.** And the activity coefficient (343.55 K)?
**A.** The activity coefficient was 1.21 ± 0.078.

**Q.** And the activity coefficient (354.05 K)?
**A.** The activity coefficient was 1.23 ± 0.079.

**Q.** What about the activity coefficient (364.45 K) of the same compound?
**A.** The activity coefficient was 1.24 ± 0.08.

**Q.** And the activity coefficient (374.95 K)?
**A.** The activity coefficient was 1.26 ± 0.081.

**Q.** Which activity coefficient (301.85 K) does the source give for CCCCCC [hexane] + CCCCCC[n+]1ccn(C)c1.O=S(=O)([N-]S(=O)(=O)C(F)(F)F)C(F)(F)F here?
**A.** The activity coefficient was 8.03 ± 0.55.

**Q.** And the activity coefficient (312.25 K)?
**A.** The activity coefficient was 7.65 ± 0.52.

**Q.** What about the activity coefficient (322.85 K) of the same compound?
**A.** Its activity coefficient is 7.41 ± 0.51.

**Q.** What about the activity coefficient (333.25 K) of the same compound?
**A.** The activity coefficient was 6.94 ± 0.47.

**Q.** And the activity coefficient (343.75 K)?
**A.** The activity coefficient was 6.74 ± 0.46.

**Q.** What does the source list for CO [methanol] + CCCCCC[n+]1ccn(C)c1.O=S(=O)([N-]S(=O)(=O)C(F)(F)F)C(F)(F)F?
**A.** activity coefficient (301.95 K): 1.46 ± 0.1; activity coefficient (312.45 K): 1.34 ± 0.09; activity coefficient (323.05 K): 1.22 ± 0.08; activity coefficient (333.45 K): 1.1 ± 0.07; activity coefficient (343.95 K): 0.99 ± 0.06; activity coefficient (354.45 K): 0.93 ± 0.06

**Q.** For CCCC(=O)OC [methyl butanoate] + CCCCCC[n+]1ccn(C)c1.O=S(=O)([N-]S(=O)(=O)C(F)(F)F)C(F)(F)F, which activity coefficient (322.75 K) is on record?
**A.** The activity coefficient was 0.868 ± 0.055.

**Q.** And the activity coefficient (333.25 K)?
**A.** Its activity coefficient is 0.874 ± 0.056.

**Q.** And the activity coefficient (343.65 K)?
**A.** Its activity coefficient is 0.877 ± 0.056.

**Q.** And the activity coefficient (354.15 K)?
**A.** The activity coefficient was 0.884 ± 0.056.

**Q.** For CCCCCCC(=O)OC [methyl heptanoate] + CCCCCC[n+]1ccn(C)c1.O=S(=O)([N-]S(=O)(=O)C(F)(F)F)C(F)(F)F, which activity coefficient (354.15 K) is on record?
**A.** Its activity coefficient is 1.6 ± 0.11.

**Q.** And the activity coefficient (364.65 K)?
**A.** Its activity coefficient is 1.52 ± 0.1.

**Q.** And the activity coefficient (375.15 K)?
**A.** Its activity coefficient is 1.44 ± 0.09.

**Q.** And the activity coefficient (385.65 K)?
**A.** Its activity coefficient is 1.38 ± 0.09.

**Q.** For CCCCCC(=O)OC [methyl hexanoate] + CCCCCC[n+]1ccn(C)c1.O=S(=O)([N-]S(=O)(=O)C(F)(F)F)C(F)(F)F, which activity coefficient (343.65 K) is on record?
**A.** The activity coefficient was 1.39 ± 0.09.

**Q.** What about the activity coefficient (354.15 K) of the same compound?
**A.** Its activity coefficient is 1.35 ± 0.09.

**Q.** What about the activity coefficient (364.65 K) of the same compound?
**A.** The activity coefficient was 1.29 ± 0.08.

**Q.** What about the activity coefficient (375.15 K) of the same compound?
**A.** Its activity coefficient is 1.25 ± 0.08.

**Q.** What about the activity coefficient (385.65 K) of the same compound?
**A.** Its activity coefficient is 1.2 ± 0.08.

**Q.** Which results are given for CCCCC(=O)OC [methyl pentanoate] + CCCCCC[n+]1ccn(C)c1.O=S(=O)([N-]S(=O)(=O)C(F)(F)F)C(F)(F)F?
**A.** activity coefficient (322.75 K): 1.04 ± 0.07; activity coefficient (333.25 K): 1.03 ± 0.06; activity coefficient (343.65 K): 1.01 ± 0.06; activity coefficient (354.15 K): 0.99 ± 0.06

**Q.** Which results are given for CCC(=O)OC [methyl propanoate] + CCCCCC[n+]1ccn(C)c1.O=S(=O)([N-]S(=O)(=O)C(F)(F)F)C(F)(F)F?
**A.** activity coefficient (322.75 K): 0.681 ± 0.046; activity coefficient (333.25 K): 0.683 ± 0.046; activity coefficient (343.65 K): 0.685 ± 0.046; activity coefficient (354.15 K): 0.688 ± 0.046

**Q.** With CCCCCCCCC [nonane] + CCCCCC[n+]1ccn(C)c1.O=S(=O)([N-]S(=O)(=O)C(F)(F)F)C(F)(F)F as the compound, how does the activity coefficient (307.05 K) read?
**A.** The activity coefficient was 21.4 ± 1.5.

**Q.** What about the activity coefficient (312.35 K) of the same compound?
**A.** Its activity coefficient is 20.5 and 20.3.

**Q.** What about the activity coefficient (322.85 K) of the same compound?
**A.** The activity coefficient was 18.9 and 18.6.

**Q.** For C=CCCCCCC [oct-1-ene] + CCCCCC[n+]1ccn(C)c1.O=S(=O)([N-]S(=O)(=O)C(F)(F)F)C(F)(F)F, which activity coefficient (301.95 K) is on record?
**A.** The activity coefficient was 8.83 ± 0.6.

**Q.** What about the activity coefficient (312.45 K) of the same compound?
**A.** Its activity coefficient is 8.43 ± 0.58.

**Q.** And the activity coefficient (322.95 K)?
**A.** Its activity coefficient is 8.08 ± 0.55.

**Q.** What about the activity coefficient (333.45 K) of the same compound?
**A.** Its activity coefficient is 7.66 ± 0.52.

**Q.** And the activity coefficient (343.95 K)?
**A.** The activity coefficient was 7.37 ± 0.5.

**Q.** What about the activity coefficient (354.35 K) of the same compound?
**A.** Its activity coefficient is 7.16 ± 0.49.

**Q.** Which results are given for CCCCCCCC=O [octanal] + CCCCCC[n+]1ccn(C)c1.O=S(=O)([N-]S(=O)(=O)C(F)(F)F)C(F)(F)F?
**A.** activity coefficient (354.05 K): 1.9 ± 0.13; activity coefficient (364.45 K): 1.92 ± 0.13; activity coefficient (374.95 K): 1.94 ± 0.13; activity coefficient (385.45 K): 1.96 ± 0.13; activity coefficient (395.95 K): 1.97 ± 0.13

From the NIST ThermoML archive (doi:10.1021/je0503554)
